These results are taken from patent US8329699B2, “Pyrrolopyrazine kinase inhibitors” (Hoffmann-La Roche Inc., priority 2010, dated 2012).

Series [1] addresses T1, JAK3: Recombinant human kinase domain (h-jak3-sf21-c) (Homo sapiens, UniProt P52333).
T1 construct: JAK3: Recombinant human kinase domain from Millipore (Cat # 14-629) or prepared; purchased Millipore 14-629
Kind of series: Determination of IC50 of Janus Kinase (JAK) inhibition, JAK3 (radioactive end-point assay with 33P-ATP). Format: biochemical. The settings on record: ATP 1.5 uM, peptide 50 uM, 20 minutes, room temperature. The source says:
Determination of IC50 of Janus Kinase (JAK) Inhibition:
Enzymes and peptide substrate used are described below: • JAK1: Recombinant human kinase domain from Invitrogen (Cat # PV4774) • JAK3: Recombinant human kinase domain from Millipore (Cat # 14-629) or prepared. • JAK2: Recombinant human kinase domain from Millipore (Cat # 14-640) • Substrate: N-terminally biotinylated 14-mer peptide derived from activation loop of JAK1 with sequence of the peptide substrate: Biotin-[…]
Assay conditions used are described below: • Assay Buffer: JAK Kinase Buffer: 50 mM Hepes [pH 7.2], 10 mM MgCl2, 1 mM DTT, 1 mg/mL BSA. The assay is carried out in this buffer. • Assay Format The kinase activity of all three JAK kinases is measured using a radioactive, end-point assay and with trace amounts of^33P-ATP. The assays are carried out in 96-well polypropylene plates. Experimental Method:
All concentrations are final in the reaction mixture and all incubations are carried at room temperature. Assay steps are described below: • 1) Compounds are serially diluted in 100% DMSO typically at a 10× starting concentration of 1 mM. Final concentration of DMSO in the reaction is 10%. • 2) Compounds are preincubated with enzyme (0.5 nM JAK3 (commercially available), 0.2 nM JAK3 (prepared), 1 nM JAK2, 5 nM JAK1) for 10 minutes. • 3) Reactions are initiated by the addition of a cocktail of the two substrates (ATP and peptide premixed in the JAK Kinase Buffer). In the JAK2/JAK3 assays, ATP and the peptide are used at concentrations of 1.5 uM and 50 uM, respectively. JAK1 assay is carried out at an ATP concentration of 10 uM and a peptide concentration of 50 uM. • 4) The duration of the assay for JAK2 and JAK3 is 20 minutes. JAK1 assay is carried out for 40 minutes. With all three enzymes, reactions are terminated by the addition of 0.5M EDTA to a final concentration of 100 mM. • 5) 25 ul of terminated reactions are transferred to 150 ul of a 7.5% (v/v) slurry of streptavidin-coated sepharose beads in MgCl2- and CaCl2-free 1× Phosphate Buffered Saline containing 50 mM of EDTA in 96-well, 1.2 um MultiScreen-BV filter plates. • 6) After a 30-minute incubation, the beads are washed under vacuum with the following buffers: • a. 3 to 4 washes with 200 ul of 2M NaCl. • b. 3 to 4 washes with 200 ul of 2M NaCl plus 1% (v/v) phosphoric acid. • c. 1 wash with water. • 7) Washed plates are dried in a 60° C. oven for between 1 to 2 hours. • 8) 70 ul of Microscint 20 scintillation fluid is added to each well of filter plates and after at least 30 minutes of incubation, radioactive counts are measured in a Perkinelmer microplate scintillation counter.

“And” between values parts separate entries of the source, which are not always exact repeats. Equal values may be shown once.

T1 sequence (P52333 822-1111 limits assumed): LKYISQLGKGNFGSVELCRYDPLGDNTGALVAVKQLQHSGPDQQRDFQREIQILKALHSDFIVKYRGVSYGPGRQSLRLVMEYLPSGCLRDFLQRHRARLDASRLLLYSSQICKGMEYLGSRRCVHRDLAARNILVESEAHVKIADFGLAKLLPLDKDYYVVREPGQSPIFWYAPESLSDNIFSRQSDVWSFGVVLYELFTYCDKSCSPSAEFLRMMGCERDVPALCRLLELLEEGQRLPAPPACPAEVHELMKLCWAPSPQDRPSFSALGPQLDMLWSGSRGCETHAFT

Turning to `CS(=O)(=O)N1CCC(NC(=O)c2c[nH]c3ncc(C4CC4)nc23)C1` (stereo not shown) [Compound I-20, 2-Cyclopropyl-5H-pyrrolo[2,3-b]pyrazine-7-carboxylic acid (1-methanesulfonyl-pyrrolidin-3-yl)-amide], the melting point is more than 300 °C. The IC50 in series [1] was found to be 35.4 nM.

`CS(=O)(=O)N1CCC(NC(=O)c2c[nH]c3ncc(C4CC4)nc23)CC1` [Compound I-21, 2-Cyclopropyl-5H-pyrrolo[2,3-b]pyrazine-7-carboxylic acid (1-methanesulfonyl-piperidin-4-yl)-amide]: the melting point lay within 278 to 280 °C. Also, the 50% inhibitory concentration (IC50) in series [1] came to 96.2 nM.

As for `O=C(NC1CCCCC1)c1c[nH]c2ncc(C3CC3)nc12` [Compound I-22, 2-Cyclopropyl-5H-pyrrolo[2,3-b]pyrazine-7-carboxylic acid cyclohexylamide], the melting point was more than 300 °C. Moreover, in series [1], the IC50 came out at 5.2 nM.

Compound `O=C(NC1CCCC1)c1c[nH]c2ncc(C3CC3)nc12` [Compound I-23, 2-Cyclopropyl-5H-pyrrolo[2,3-b]pyrazine-7-carboxylic acid cyclopentylamide] returned a melting point of more than 300 °C. The IC50 in series [1] was found to be 13.3 nM.

On to `CS(=O)(=O)N1CCCC(NC(=O)c2c[nH]c3ncc(C4CC4)nc23)C1` (stereo not shown) [Compound I-24, 2-Cyclopropyl-5H-pyrrolo[2,3-b]pyrazine-7-carboxylic acid (1-methanesulfonyl-piperidin-3-yl)-amide], for which the melting point lay in the range of 284 to 287 °C. Also, in series [1], the IC50 was found to be 8 nM.

As for `N#CCC1(NC(=O)c2c[nH]c3ncc(C4CC4)nc23)CCCC1` [Compound I-26, 2-Cyclopropyl-5H-pyrrolo[2,3-b]pyrazine-7-carboxylic acid (1-cyanomethyl-cyclopentyl)-amide], the melting point was 280 to 281.1 °C and 280 to 281 °C. For the same compound, in series [1], the IC50 worked out at 26.3 nM.

For `CCS(=O)(=O)N1CCCC(NC(=O)c2c[nH]c3ncc(C4CC4)nc23)C1` (stereo not shown) [Compound I-27, 2-Cyclopropyl-5H-pyrrolo[2,3-b]pyrazine-7-carboxylic acid (1-ethanesulfonyl-piperidin-3-yl)-amide], the melting point fell in the range of 266 to 269 °C. Further, the half-inhibitory concentration (IC50) in series [1] was 17.3 nM.

`CCCS(=O)(=O)N1CCCC(NC(=O)c2c[nH]c3ncc(C4CC4)nc23)C1` (stereo not shown) [Compound I-28, 2-Cyclopropyl-5H-pyrrolo[2,3-b]pyrazine-7-carboxylic acid [1-(propane-1-sulfonyl)-piperidin-3-yl]-amide]: the melting point fell in the range of 228 to 230 °C. In addition, the 50% inhibitory concentration (IC50) in series [1] was 22 nM.

As to `CC(C)S(=O)(=O)N1CCCC(NC(=O)c2c[nH]c3ncc(C4CC4)nc23)C1` (stereo not shown) [Compound I-29, 2-Cyclopropyl-5H-pyrrolo[2,3-b]pyrazine-7-carboxylic acid [1-(propane-2-sulfonyl)-piperidin-3-yl]-amide], the melting point lay in the range of 255 to 258 °C. For the same compound, the IC50 in series [1] was found to be 73.2 nM.

For the compound `CS(=O)(=O)N1CCC[C@H](NC(=O)c2c[nH]c3ncc(C4CC4)nc23)C1` [Compound I-30, 2-Cyclopropyl-5H-pyrrolo[2,3-b]pyrazine-7-carboxylic acid ((S)-1-methanesulfonyl-piperidin-3-yl)-amide], the melting point fell in the range of 278 to 281 °C. Also, the concentration for half-maximal inhibition (IC50) in series [1] is 55.5 nM.

Consider `CS(=O)(=O)N1CCC[C@@H](NC(=O)c2c[nH]c3ncc(C4CC4)nc23)C1` [Compound I-31, 2-Cyclopropyl-5H-pyrrolo[2,3-b]pyrazine-7-carboxylic acid ((R)-1-methanesulfonyl-piperidin-3-yl)-amide], for which the melting point is 277 to 280 °C. In addition, the IC50 in series [1] came to 3.7 nM.

The compound `CC1(C)CCCCC1NC(=O)c1c[nH]c2ncc(C3CC3)nc12` (stereo not shown) [Compound I-32, 2-Cyclopropyl-5H-pyrrolo[2,3-b]pyrazine-7-carboxylic acid (2,2-dimethyl-cyclohexyl)-amide] returned a melting point of 295 to 297 °C. In series [1], the concentration for half-maximal inhibition (IC50) was 1.1 nM.

`O=C(NC1CCCCC1)c1c[nH]c2ncc(Oc3ccccc3)nc12` [Compound I-33, 2-Phenoxy-5H-pyrrolo[2,3-b]pyrazine-7-carboxylic acid cyclohexylamide] showed a melting point of 255 to 257 °C. Also, the half-inhibitory concentration (IC50) in series [1] stood at 153 nM.

In turn, `O=C(NC1CCCCC1)c1c[nH]c2ncc(Oc3ccc(F)cc3F)nc12` [Compound I-34, 2-(2,4-Difluoro-phenoxy)-5H-pyrrolo[2,3-b]pyrazine-7-carboxylic acid cyclohexylamide] had a melting point of 245 to 247 °C. Further, the IC50 in series [1] was 424 nM.

Regarding `CC(=O)N1CCC(NC(=O)c2c[nH]c3ncc(C4CC4)nc23)CC1` [Compound I-36, 2-Cyclopropyl-5H-pyrrolo[2,3-b]pyrazine-7-carboxylic acid (1-acetyl-piperidin-4-yl)-amide], the melting point fell in the range of 273 to 275 °C. For the same compound, the IC50 in series [1] worked out at 167 nM.

`CC(=O)N1CCC(NC(=O)c2c[nH]c3ncc(C4CC4)nc23)C1` (stereo not shown) [Compound I-37, 2-Cyclopropyl-5H-pyrrolo[2,3-b]pyrazine-7-carboxylic acid (1-acetyl-pyrrolidin-3-yl)-amide] had a melting point of 242 to 245 °C. Further, in series [1], the half-inhibitory concentration (IC50) worked out at 120 nM.

Consider `CC(=O)N1CCCC(NC(=O)c2c[nH]c3ncc(C4CC4)nc23)C1` (stereo not shown) [Compound I-38, 2-Cyclopropyl-5H-pyrrolo[2,3-b]pyrazine-7-carboxylic acid (1-acetyl-piperidin-3-yl)-amide], for which the melting point was 215 to 218 °C. The 50% inhibitory concentration (IC50) in series [1] is 74.2 nM.
